# Laboratory results taken from patent publication US9827265B1, “Method for attenuating free radical formation resulting from a bodily insult” (MD Scientific, LLC, priority 2012, dated 2017).
# Where two headings read alike, the source gives them in different places.
# [1] = high risk subjects with injection of iodinated contrast in the cardiac arteries, total 1.96 mEq/kg, 40% prior to and 60% during and after the contrast, sodium concentration 154 mEq/L, death primarily from cardiac failure
SMILES,incidence of death [1] [%],"incidence of death (subjects with other types of iodinated contrast injection (other non-cardiac arteries), compared between both study cohorts)"
"O=C([O-])O.[Na+] [sodium bicarbonate solution, sodium bicarbonate]",3.2,same incidence of death in both study cohorts
"[Cl-].[Na+] [sodium chloride (saline), sodium chloride]",10.1,–
